Test results from PubChem BioAssay AID2286 (Southern Research Specialized Biocontainment Screening …, 2010).
Active and inactive are the calls of the source.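 How the source made its calls: active means minimum cell viability of 80% or lower across the dose range, counted as toxic; inactive means minimum cell viability above 80%.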

How the values were obtained:
[1] = MAGI-CCR5 and HeLa-R5-16 cytotoxicity, dose response, cytotoxicity control for HIV-1 fusion inhibitor project, cell-based, MAGI and MAGI-HeLa co-culture (AID 2286); details: MAGI-CCR5 cells viability, CellTiter-Glo ATP luminescence; for minimum viability: measured here: MAGI minimum viability across doses;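 on all read-outs here: cells exposed to compound for at least 64 h before ATP readout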;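 on minimum viability: 100% = median of DMSO vehicle wells with no ATP signal meaning 0%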;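 on viability: 100% = median of DMSO vehicle wells with no ATP signal meaning 0%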
[2] = system: MAGI-CCR5 cells viability, CellTiter-Glo ATP luminescence; assay: as above
[3] = MAGI-HeLa co-culture viability, at 50 µM, stronger effect = lower value
[4] = measured here: MAGI + HeLa-R5-16 co-culture viability

Structure (SMILES) | viability [1, 3] [%] | minimum viability ([1]; at 50 µM, stronger effect = lower value) [%] | CC50 [2] [µM] | minimum viability ([1]; at 25 µM, stronger effect = lower value) [%] | CC50 [2, 4] [µM] | minimum viability ([1]; at 12.5 µM, stronger effect = lower value) [%] | viability ([1]; at 25 µM (top of the series)) | minimum viability ([1]; at 1.56 µM, stronger effect = lower value) [%] | viability ([1]; at 50 µM (top of the series)) | minimum viability ([1]; at 3.13 µM, stronger effect = lower value) [%]
CCOc1ccc(CCNC(=O)c2ccc3c(=O)[nH]c4c(C(=O)NC(C)C)sc(=S)n4c3c2)cc1 | 93.9 | 45.6 | 37.2 | – | – | – | – | – | – | –
COc1cc([N+](=O)[O-])cc(/C=C2/SC(=S)N(Cc3ccccc3)C2=O)c1O | 16.4 | – | 8.44 | 5.81 | 29.2 | – | – | – | – | –
Brc1ccc(N/N=C(/N=Nc2nn[nH]n2)c2ccccc2)cc1 | 20.1 | 44.6 | 32.8 | – | 23.5 | – | – | – | – | –
COc1cc(/C=C2/SC(=S)N(Cc3ccccc3)C2=O)ccc1OCC(=O)O | 79 | 4.94 | 30.2 | – | > 50 | – | – | – | – | –
Cc1nn(CCc2nn[nH]n2)c2nc(-c3ccc(C4CCCCC4)cc3)cc(C(F)(F)F)c12 | 66.9 | 42.9 | 36.3 | – | > 50 | – | – | – | – | –
O=C(N/N=C/c1cc(Cl)cc([N+](=O)[O-])c1O)NC12CC3CC(CC(C3)C1)C2 | 55.7 | 49.2 | 48.7 | – | > 50 | – | – | – | – | –
COCCN1C(=O)/C(=C/c2ccc(OCc3ccc(C(=O)O)cc3)c(OC)c2)SC1=Nc1ccccc1 | 44.3 | 41.3 | 33.8 | – | 35.4 | – | – | – | – | –
CC(C)(C)c1ccc(S(=O)(=O)/N=C2\C=C(NS(=O)(=O)c3ccccc3)C(=O)c3ccccc32)cc1 | 51.2 | 51.5 | – | – | > 50 | – | – | – | – | –
CCOC(=O)c1sc2nc3c(SCCC(=O)O)cc(C(=O)c4cc(OC)ccc4O)cn3c(=O)c2c1C | 65.6 | 68.7 | – | – | > 50 | – | – | – | – | –
COc1ccc(S(=O)(=O)Nc2ccccc2C(=O)Nc2nc(-c3ccc(F)cc3)cs2)cc1OC | 27.5 | 18.4 | 6.51 | – | 14.8 | – | – | – | – | –
O=C1/C(=C\c2ccc(O)c(O)c2)C(c2ccccc2)=NN1c1ccccc1 | 34.7 | 28.1 | 38.4 | – | 48.7 | – | – | – | – | –
COc1ccc(-c2nn(-c3ccccc3)cc2/C=C2/SC(=S)N(CCC(=O)O)C2=O)c(C)c1 | 71.9 | 52 | 48.6 | – | > 50 | – | – | – | – | –
O=C(O)CCn1cc(/C=C/C(=O)c2ccc(Cl)cc2)c(-c2cccc(Br)c2)n1 | 87 | 40.5 | 43.1 | – | – | – | – | – | – | –
O=C(O)c1cccc2c1NC(c1cccc([N+](=O)[O-])c1)C1CC(Sc3ccccc3[N+](=O)[O-])C(Cl)C21 (configuration not stated) | 48.4 | 53.6 | – | – | 47.9 | – | – | – | – | –
O=C(Nc1cc(S(=O)(=O)N2CCCCC2)ccc1Cl)c1ccccc1NS(=O)(=O)c1ccc(F)cc1 | 24.8 | – | 2.49 | – | 7.38 | 19.1 | – | – | – | –
CSc1nc(SCC(=O)O)c2sc3nc(-c4ccccc4)c4c(c3c2n1)CCC4 | 70.5 | – | – | – | > 50 | – | 99.5% (inactive) | 88.2 | – | –
Cc1c2c(=O)n(-c3nc4ccccc4s3)nc-2cc(O)n1Cc1ccccc1 | 49.2 | 42.5 | 33.2 | – | > 50 | – | – | – | – | –
O=C(O)CCn1cc(/C=C/C(=O)c2ccc(Cl)cc2)c(-c2ccc(Br)cc2)n1 | 36.4 | 11.5 | 30.7 | – | 45.5 | – | – | – | – | –
COc1ccc(-c2csc(NC(=O)c3ccccc3NS(=O)(=O)c3ccc(C)cc3)n2)cc1 | 24.4 | 20 | 4.93 | – | 10.9 | – | – | – | – | –
O=S(=O)(Nc1nc2ccccc2nc1Nc1cccc(S(=O)(=O)N2CCCCC2)c1)c1ccccc1 | 23.4 | 21.9 | 9.47 | – | 18.8 | – | – | – | – | –
O=S(=O)(Nc1nc(-c2sccc2Cl)cs1)c1cc(Cl)ccc1Cl | 70.8 | 47.7 | – | – | > 50 | – | – | – | – | –
O=C(O)c1ccc(Nc2nc(-c3cc4ccccc4oc3=O)cs2)cc1O | 77.6 | 85.6 | – | – | > 50 | – | – | – | 85.6% (inactive) | –
O=C(NN1C(=O)/C(=C/c2ccc(O)c([N+](=O)[O-])c2)SC1=S)c1ccccc1Cl | 76.4 | 67.5 | – | – | > 50 | – | – | – | – | –
CSc1nnc(-c2ccccc2N=Cc2c(C)[nH]n(-c3ccc4ccccc4c3)c2=O)c(=O)[nH]1 | 55.5 | 53.7 | – | – | > 50 | – | – | – | – | –
COc1cccc(OCCOc2ccc(/C=C3\C(=N)N4N=C(S(C)(=O)=O)SC4=NC3=O)cc2OC)c1 | 38 | – | – | – | 35.8 | – | – | – | 97.2% (inactive) | 91.2
